Experiments:
human p38α = human p38α (Homo sapiens, UniProt Q16539); assay: Purified and activated recombinant human p38α assay (HTRF); format: biochemical; conditions: 1 nM p38α, 50 μM ATP, 100 nM GST-ATF2-Avitag, 1 hour at RT, read-out: p38a IC50 IC50
Method: Purified and Activated Recombinant Human p38α Assay
Kinase Reaction Buffer: Kinase reaction buffer for p38α HTRF assays consists of 50 mM Tris-pH 7.5, 5 mM MgCl2, 0.1 mg/mL BSA, 100 μM Na3VO4 and 0.5 mM DTT.
HTRF Detection Buffer: HTRF detection buffer contains 100 mM HEPES-pH 7.5, 100 mM NaCl, 0.1% BSA, 0.05% Tween-20, and 10 mM EDTA.
Serial Dilution of Compounds: Compounds were dissolved in 100% DMSO and serially diluted (3 fold, 10 point) in a polypropylene 96-well microtiter plate (drug plate). The final starting concentration of compounds in the p38α enzymatic assays was 1 μM. Columns 6 and 12 (HI controls and LO controls respectively) in the drug plate were reserved as controls and contained only DMSO. Kinase Reaction: The p38α kinase reactions were carried out in a polypropylene 96-well black round bottom assay plate in total volume of 30 μL kinase reaction buffer. Appropriate concentration of purified and activated enzyme (recombinant human) was mixed with indicated concentration of ATP and 100 nM GST-ATF2-Avitag, in the presence or absence (HI control) of Compound. See table below for actual concentrations. In the absence of substrate, the background was measured as LO control. The reaction was allowed to incubate for 1 hour at RT. Assay Reagent Concentrations: The final reagent concentrations were 1 nM p38α and 50 μM ATP. […] After 60 minutes incubation at room temperature, the assay plate was read in a Discovery Plate Reader. The wells were excited with coherent 320 nm light and the ratio of delayed ([…] post excitation) emissions at […] (native europium fluorescence) and 665 nm (europium fluorescence transferred to allophycocyanin—an index of substrate phosphorylation) was determined (Park et al, 1999). Data Analysis: The proportion of substrate phosphorylated in the kinase reaction in the presence of compound compared with that phosphorylated in the presence of DMSO vehicle alone (HI control) was calculated using the formula: % control (POC)=(compound−average LO)/(average HI−average LO)*100. Data (consisting of POC and inhibitor concentration in μM) was fitted to a 4-parameter equation (y=A+((B−A)/(1+((x/C)^D))), where A is the minimum y (POC) value, B is the maximum y (POC), C is the x (compound concentration) at the point of inflection and D is the slope factor, using a Levenburg-Marquardt non-linear regression algorithm.
The inhibition constant (Ki) of the inhibitor was estimated from the IC50 (compound concentration at the point of inflection C) using the Cheng-Prussof equation: Ki=IC50/(1+S/Km), where S is the ATP substrate concentration, and Km is the Michaelis constant for ATP as determined experimentally. All results were expressed as the mean±the standard error of the mean. Data acquisition and non-linear regression algorithms were performed using Activity Base v5.2 and XL-fit software v4.1 respectively. All data was archived using Activity Base v5.2 software.

[1] = system: TNF-α induced IL-8 production in human whole blood; assay: Inhibition of TNF-α induced IL-8 in 50% human whole blood; format: cell-based; conditions: 1 nM TNF-α, secreted IL-8, 16-18 hours, read-out: WB TNF/IL8 IC50
Method: Inhibition of TNF-α Induced IL-8 in 50% Human Whole Blood
Test compounds were evaluated in vitro for the ability to inhibit the production of secreted IL-8 by whole blood activated with TNF-α. Fresh human whole blood was obtained from healthy, non-medicated volunteers in sodium heparin tubes.
Compound Dilution—Assay Procedure
Test compounds are serially diluted 1:3 in DMSO and then diluted 1:250 into R10 (RPMI 1640, 10% human serum AB, 1× pen/strep/glutamine) to the 4× working concentration to be used in the assay. 100 ul heparinized whole blood is plated into wells of 96 well flat bottom plates. 50 ul of either 4× compound or DMSO control (Final DMSO concentration is 0.1%) are added to the appropriate wells. Plates are incubated for 1 hour at 37 degrees Celsius. 50 ul of 4×TNF-α (4 nM TNF-α, for a final concentration of 1 nM) or control (media alone) is added to the appropriate wells (Total volume=200 ul). Plates are incubated overnight (16-18 hours). 100 ul of supernatant is collected and stored in 96-well round bottom polypropylene plates at −80 degrees Celsius or assayed immediately for IL-8.
Cytokines are measured on antibody (Ab) sandwich ECL based 96-well detection plates. 20 ul of supernatant are added to plate and plate is sealed and shaken at RT for 1 hour. 130 ul of detection Ab cocktail is added and plates are sealed and shaken for 1 hour in the dark at RT. Plates are read on MSD Sector HTS instrument. Data are analyzed and IC50 values generated using Activity Base and Xl-fit programs.

Sequence of human p38α (Q16539 whole entry): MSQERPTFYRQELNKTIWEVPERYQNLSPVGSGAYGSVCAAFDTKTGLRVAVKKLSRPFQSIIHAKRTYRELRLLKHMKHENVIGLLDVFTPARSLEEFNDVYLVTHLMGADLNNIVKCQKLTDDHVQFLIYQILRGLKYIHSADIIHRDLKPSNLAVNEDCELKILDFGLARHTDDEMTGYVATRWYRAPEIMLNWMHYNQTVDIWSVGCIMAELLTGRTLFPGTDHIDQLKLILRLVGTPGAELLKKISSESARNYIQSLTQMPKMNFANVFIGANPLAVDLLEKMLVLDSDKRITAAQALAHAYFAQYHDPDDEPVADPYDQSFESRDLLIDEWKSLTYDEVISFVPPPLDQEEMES

## Cc1cc(S(C)(=O)=O)ccc1-c1nncc2cc(Nc3ccc(F)cn3)ccc12 [Example 33, N-(5-fluoro-2-pyridinyl)-1-(2-methyl-4-(methylsulfonyl)phenyl)-6-phthalazinamine]
Human p38α
  IC50: 0.8 nM
[1]
  IC50: 20 nM

## Cn1nccc1-c1nncc2cc(Nc3ccc(F)cc3)ccc12 [Example 32, N-(4-fluorophenyl)-1-(1-methyl-1H-pyrazol-5-yl)-6-phthalazinamine]
Human p38α
  IC50: 1 nM
[1]
  IC50: 4.9 nM

## Cc1cc(S(C)(=O)=O)c(Cl)cc1-c1nncc2cc(Nc3ccc(F)cc3)ccc12 [Example 25, 1-(5-chloro-2-methyl-4-(methylsulfonyl)phenyl)-N-(4-fluorophenyl)-6-phthalazinamine]
Human p38α
  IC50: 0.7 nM
[1]
  IC50: 4.5 nM

## N-(4-fluorophenyl)-1-((2,2,2-trifluoro-1-methylethyl)oxy)-6-phthalazinamine [Example 23]
Human p38α
  IC50: 9.1 nM
[1]
  IC50: 137 nM

## CC(C)c1nncc2cc(Nc3ccc(F)cc3F)ccc12 [Example 7, N-(2,4-Difluorophenyl)-1-isopropylphthalazin-6-amine]
Human p38α
  IC50: 0.4 nM
[1]
  IC50: 2.4 nM

## Fc1ccc(Nc2ccc3c(-c4ccccc4Cl)nncc3c2)cc1 [Example 31, 1-(2-chlorophenyl)-N-(4-fluorophenyl)-6-phthalazinamine]
Human p38α
  IC50: 0.7 nM
[1]
  IC50: 1.7 nM

## CC1CCCN1c1nncc2cc(Nc3ccc(F)cc3F)ccc12 (stereo not drawn) [Example 1, N-(2,4-Difluorophenyl)-1-(2-methylpyrrolidin-1-yl)phthalazin-6-amine]
Human p38α
  IC50: 1.5 nM
[1]
  IC50: 4.1 nM

## Cc1cc(F)ccc1-c1nncc2cc(Nc3cccc(F)c3C)ccc12 [Example 18, N-(3-fluoro-2-methylphenyl)-1-(4-fluoro-2-methylphenyl)-6-phthalazinamine]
Human p38α
  IC50: 0.3 nM
[1]
  IC50: 1.8 nM

## C[C@@H](Oc1nncc2cc(Nc3ccc(F)cc3F)ccc12)C(F)(F)F [Example 6a, N-(2,4-difluorophenyl)-1-(((1R)-2,2,2-trifluoro-1-methylethyl)oxy)-6-phthalazinamine]
Human p38α
  IC50: 1.5 nM
[1]
  IC50: 24 nM

## CC(Oc1nncc2cc(Nc3ccc(F)cc3F)ccc12)C(F)(F)F (racemic) [Example 6, N-(2,4-Difluorophenyl)-1-(1,1,1-trifluoropropan-2-yloxy)phthalazin-6-amine]
Human p38α
  IC50: 3.1 nM
[1]
  IC50: 37 nM

## Cc1cc(F)ccc1-c1nncc2cc(Sc3cccc(F)c3)ccc12 [Example 4, 1-(4-Fluoro-2-methylphenyl)-6-(3-fluorophenylthio)phthalazine]
Human p38α
  IC50: 1 nM
[1]
  IC50: 66.9 nM

## Cc1cc(F)ccc1-c1nncc2cc(Nc3ccccc3)ccc12 [Example 27, 1-(4-fluoro-2-methylphenyl)-N-phenyl-6-phthalazinamine]
Human p38α
  IC50: 0.7 nM
[1]
  IC50: 2.7 nM

## CC1CCCN1c1nncc2cc(Nc3ccccc3)ccc12 (stereo not drawn) [Example 17, 1-(2-methyl-1-pyrrolidinyl)-N-phenyl-6-phthalazinamine]
Human p38α
  IC50: 5 nM
[1]
  IC50: 6.7 nM

## c1ccc(Nc2ccc3c(N4CCOCC4)nncc3c2)cc1 [Example 34, 1-(4-morpholinyl)-N-phenyl-6-phthalazinamine]
Human p38α
  IC50: 8 nM
[1]
  IC50: 16 nM

## Cc1cc(F)ccc1Nc1ccc2c(-c3ccc(F)cc3C)nncc2c1 [Example 20, N,1-bis(4-fluoro-2-methylphenyl)-6-phthalazinamine]
Human p38α
  IC50: 0.3 nM
[1]
  IC50: 1.8 nM

## Cc1ccc(F)cc1Nc1ccc2c(-c3ccc(F)cc3C)nncc2c1 [Example 3, 1-(4-Fluoro-2-methylphenyl)-N-(5-fluoro-2-methylphenyl)phthalazin-6-amine]
Human p38α
  IC50: 0.5 nM
[1]
  IC50: 3.5 nM

## Cc1cc(S(C)(=O)=O)c(F)cc1-c1nncc2cc(Nc3ccc(F)cc3F)ccc12 [Example 12, N-(2,4-difluorophenyl)-1-(5-fluoro-2-methyl-4-(methylsulfonyl)phenyl)-6-phthalazinamine]
Human p38α
  IC50: 0.5 nM
[1]
  IC50: 0.8 nM

## Cc1cc(F)ccc1-c1nncc2cc(Nc3ccccn3)ccc12 [Example 16, 1-(4-fluoro-2-methylphenyl)-N-2-pyridinyl-6-phthalazinamine]
Human p38α
  IC50: 1.6 nM
[1]
  IC50: 16.1 nM

## Cc1cc(F)ccc1-c1nncc2cc(Nc3ccc(F)cn3)ccc12 [Example 22, 1-(4-fluoro-2-methylphenyl)-N-(5-fluoro-2-pyridinyl)-6-phthalazinamine]
Human p38α
  IC50: 0.8 nM
[1]
  IC50: 10.9 nM

## Cc1cc(S(C)(=O)=O)c(Cl)cc1-c1nncc2cc(Nc3ccc(F)cc3F)ccc12 [Example 26, 1-(5-chloro-2-methyl-4-(methylsulfonyl)phenyl)-N-(2,4-difluorophenyl)-6-phthalazinamine]
Human p38α
  IC50: 0.7 nM
[1]
  IC50: 4.2 nM

## COc1ncccc1-c1nncc2cc(Nc3ccc(F)cc3)ccc12 [Example 28, N-(4-fluorophenyl)-1-(2-(methyloxy)-3-pyridinyl)-6-phthalazinamine]
Human p38α
  IC50: 0.9 nM
[1]
  IC50: 1.6 nM

## Cc1ncccc1-c1nncc2cc(Nc3ccc(F)cc3)ccc12 [Example 29, N-(4-fluorophenyl)-1-(2-methyl-3-pyridinyl)-6-phthalazinamine]
Human p38α
  IC50: 0.7 nM
[1]
  IC50: 1.8 nM

## Cc1cccc(Nc2ccc3c(-c4ccc(F)cc4C)nncc3c2)c1 [Example 19, 1-(4-fluoro-2-methylphenyl)-N-(3-methylphenyl)-6-phthalazinamine]
Human p38α
  IC50: 0.3 nM
[1]
  IC50: 2.2 nM

## Cc1cc(F)ccc1-c1nncc2cc(Nc3cccc(F)c3)ccc12 [Example 21, 1-(4-fluoro-2-methylphenyl)-N-(3-fluorophenyl)-6-phthalazinamine]
Human p38α
  IC50: 0.5 nM
[1]
  IC50: 3.2 nM

## Cc1cc(F)ccc1-c1nncc2cc(Nc3ncccc3C)ccc12 [Example 14, 1-(4-fluoro-2-methylphenyl)-N-(3-methyl-2-pyridinyl)-6-phthalazinamine]
Human p38α
  IC50: 0.7 nM
[1]
  IC50: 6.6 nM

## Cc1ccccc1-c1nncc2cc(Nc3ccccc3)ccc12 [Example 9, 1-(2-methylphenyl)-N-phenyl-6-phthalazinamine]
Human p38α
  IC50: 0.2 nM
[1]
  IC50: 1.5 nM

## Cc1noc(C)c1-c1nncc2cc(Nc3ccc(F)cc3)ccc12 [Example 30, 1-(3,5-dimethyl-4-isoxazolyl)-N-(4-fluorophenyl)-6-phthalazinamine]
Human p38α
  IC50: 0.9 nM
[1]
  IC50: 4.9 nM

## Cc1cc(S(C)(=O)=O)c(F)cc1-c1nncc2cc(Nc3ccc(F)cc3)ccc12 [Example 24, 1-(5-fluoro-2-methyl-4-(methylsulfonyl)phenyl)-N-(4-fluorophenyl)-6-phthalazinamine]
Human p38α
  IC50: 0.7 nM
[1]
  IC50: 4.7 nM

## Cc1cc(S(C)(=O)=O)ccc1-c1nncc2cc(Nc3ccc(F)cc3F)ccc12 [Example 10, N-(2,4-difluorophenyl)-1-(2-methyl-4-(methylsulfonyl)phenyl)-6-phthalazinamine]
Human p38α
  IC50: 0.3 nM
[1]
  IC50: 0.5 nM

## Cc1cc(F)ccc1-c1nncc2cc(Nc3ccc(F)cc3)ccc12 [Example 11, 1-(4-fluoro-2-methylphenyl)-N-(4-fluorophenyl)-6-phthalazinamine]
Human p38α
  IC50: 0.4 nM
[1]
  IC50: 1.5 nM
